Reference: patent US4322540A, “Substituted 4,5,6,7-tetrahydro-1H (or 2H)-indazoles” (Eli Lilly and Company, priority 1981, dated 1982)
Counter-ions that a name gives are not always drawn.

Experiments:
prolactin = test: Inhibition of prolactin secretion in reserpine-treated rats; type: in vivo, adult male rats of the Sprague-Dawley strain; settings: intraperitoneal, serum one hour after treatment, reserpine-treated male rats
Experimental: The compounds of this invention are also useful as prolactin inhibitors and as such can be employed in the treatment of inappropriate lactation, such as postpartum lactation and galactorrhea.
Adult male rats of the Sprague-Dawley strain weighing about 200 g. were housed in an air-conditioned room with controlled lighting (lights on 6 a.m.-8 p.m.) and fed lab chow and water ad libitum. Each rat received an intraperitioneal injection of 2.0 mg. of reserpine in aqueous suspension 18 hours before administration of the indazole. The purpose of the reserpine was to keep prolactin levels uniformly elevated. The compounds under test were dissolved in water and were injected intraperitioneally at doses ranging from 5 mg/kg down to […]. Each compound was administered at each dose level to a group of 10 rats, and a control group of 10 intact males received an equivalent amount of solvent. One hour after treatment all rats were killed by decapitation, and 150 μl aliquots of serum were assayed for prolactin.
The difference between the prolactin level of the treated rats and prolactin level of the control rats divided by the prolactin level of the control rats gives the percent inhibition of prolactin secretion attributable to the compounds of this invention. In the table, column 1 gives the name of the compound; and columns 2-4 the percent prolactin inhibition at the given dose level.

[1] = system: nigro-neostriatal-lesioned rats; test: Turning behavior in 6-hydroxy-dopamine-lesioned rats (dopamine agonist activity); type: in vivo, rat; settings: intraperitoneal; for Percent of rats exhibiting turning behavior: 15-minute period after latency; for Number of turns (average): counted over 15-minute period
Experimental: In this test, nigro-neostriatal-lesioned rats, prepared by the procedure of Ungerstedt and Arbuthnott, Brain Res, 24, 485 (1970) are employed. A compound having dopamine agonist activity, upon injection, causes the rats to turn in circles contralateral to the side of the lesion. After a latency period, which varies from compound to compound, the number of turns is counted over a 15-minute period. The compounds are dissolved in water and the resulting aqueous solution injected into the rat by the intraperitioneal route at a series of dose levels.

mouse = test: Acute toxicity (LD50) by the intraperitoneal route in the mouse; type: in vivo
Experimental: In using the compounds of this invention to inhibit prolactin secretion or to treat Parkinson's syndrome or for other pharmacologic action, a compound according to Formulas I and II above, or a salt thereof with a pharmaceutically-acceptable acid, is administered to a subject suffering from Parkinsonism, or in need of having their prolactin level reduced, in an amount effective to alleviate some of the symptoms of Parkinsonism or to reduce an elevated prolactin level. Oral administration is preferred. If parenteral administration is used, the injection is preferably by the subcutaneous route using an appropriate pharmaceutical formulation. […] In particular, with intravenous or intramuscular administration, a water soluble pharmaceutically-acceptable salt is employed. For oral administration, a compound according to Formulas I and II either as the free base or in the form of a salt thereof can also be mixed with standard pharmaceutical excipients and loaded into empty telescoping gelatin capsules or pressed into tablets. The oral dosage should be in the range 0.01-10 mg/kg of mammalian body weight and the parenteral dose in the range 0.0025 to 2.5 mg/kg. The LD50 of dl-5-di(n-propyl)amino-4,5,6,7-tetrahydro-1H(and 2H)-indazole dihydrochloride is between 100 and 300 mg/kg by the intraperitoneal route in the mouse.

CN(C)C1CCc2[nH]ncc2C1 (racemic) [dl-5-Dimethylamino-4,5,6,7-tetrahydro-1H-indazole dihydrochloride and dl-5-dimethylamino-4,5,6,7-tetrahydro-2H-indazole dihydrochloride]
Percent Inhibition of Prolactin (prolactin; 5 mg/kg): 73% | Percent Inhibition of Prolactin (prolactin; 50 mcg/kg): 31% | Percent Inhibition of Prolactin (prolactin; 500 mcg/kg): 30% | Percent of rats exhibiting turning behavior ([1]; 1 mg/kg): 33% | Number of turns (average) ([1]; 1 mg/kg): 5 turns

CCCN(CCC)C1CCc2cn[nH]c2C1 (racemic) [dl-6-di-(n-propyl)amino-4,5,6,7-tetrahydro-1H(and 2H)-indazole dihydrochloride]
Percent Inhibition of Prolactin (prolactin; 50 mcg/kg): 31% | Percent of rats exhibiting turning behavior ([1]; 1 mg/kg): 100% | Number of turns (average) ([1]; 1 mg/kg): 98 turns | Percent of rats exhibiting turning behavior ([1]; 100 mcg/kg): 0% | Percent of rats exhibiting turning behavior ([1]; 250 mcg/kg): 50% | Number of turns (average) ([1]; 250 mcg/kg): 30 turns

CCCN(CCC)C1CCc2n[nH]cc2C1 (racemic) [dl-5-di(n-propyl)amino-4,5,6,7-tetrahydro-1H(and 2H)-indazole dihydrochloride]
Lethality (mouse; 10 mg/kg): not fatal | Lethality (mouse; 30 mg/kg): not fatal | Side effects (mouse; 30 mg/kg): produces some undesirable side effects | Percent Inhibition of Prolactin (prolactin; 5 mg/kg): 94% | Percent Inhibition of Prolactin (prolactin; 50 mcg/kg): 1% | Percent Inhibition of Prolactin (prolactin; 500 mcg/kg): 66% | Percent of rats exhibiting turning behavior ([1]; 1 mg/kg): 67% | Number of turns (average) ([1]; 1 mg/kg): 48 turns | Percent of rats exhibiting turning behavior ([1]; 100 mcg/kg): 33% | Number of turns (average) ([1]; 100 mcg/kg): 6 turns

NC1CCc2[nH]ncc2C1 (racemic) [dl-5-Amino-4,5,6,7-tetrahydro-1H-indazole dihydrochloride and dl-5-amino-4,5,6,7-tetrahydro-2H-indazole dihydrochloride]
Percent of rats exhibiting turning behavior ([1]; 1 mg/kg): 33% | Number of turns (average) ([1]; 1 mg/kg): 7 turns
